How the values were obtained:
[1] = target: JAK1 (recombinant purified GST-tagged catalytic domain) (Homo sapiens (Human), UniProt P23458); experiment: biochemical;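 also: biochemical assay with HTRF read-out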
[2] = target: JAK2 (recombinant purified GST-tagged catalytic domain) (Homo sapiens (Human), UniProt O60674); experiment: biochemical;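 also: biochemical JAK kinase assay with HTRF detection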
Chain of JAK2 (recombinant purified GST-tagged catalytic domain) (O60674 849-1124): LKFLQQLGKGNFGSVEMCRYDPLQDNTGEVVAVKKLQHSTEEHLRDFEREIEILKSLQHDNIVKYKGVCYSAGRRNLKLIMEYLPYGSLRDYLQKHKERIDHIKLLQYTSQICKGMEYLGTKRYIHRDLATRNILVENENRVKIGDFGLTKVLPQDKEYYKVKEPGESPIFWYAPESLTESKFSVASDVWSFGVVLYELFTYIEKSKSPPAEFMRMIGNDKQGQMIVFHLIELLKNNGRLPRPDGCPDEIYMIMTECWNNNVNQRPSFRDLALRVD

Chain of JAK1 (recombinant purified GST-tagged catalytic domain) (P23458 875-1153): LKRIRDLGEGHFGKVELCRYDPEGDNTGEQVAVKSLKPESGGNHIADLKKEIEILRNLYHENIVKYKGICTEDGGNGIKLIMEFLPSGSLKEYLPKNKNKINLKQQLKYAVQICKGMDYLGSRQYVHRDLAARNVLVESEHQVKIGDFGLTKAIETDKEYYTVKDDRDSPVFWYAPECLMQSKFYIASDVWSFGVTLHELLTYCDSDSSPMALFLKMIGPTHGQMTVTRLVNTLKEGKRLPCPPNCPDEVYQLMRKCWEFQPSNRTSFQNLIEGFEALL

## N#C[C@H]1C[C@H](NC2(C(F)(F)F)CC2)CC[C@@H]1n1cc(C(N)=O)c(Nc2ccc(Cl)cc2)n1 (single isomer, unassigned) [Example 28-227, 3-[(4-chlorophenyl)amino]-1-[(1S,2S,4R or 1R,2R,4S)-2-cyano-4-{[1-(trifluoro-methyl)cyclopropyl]a-mino}cyclohexyl]-1H-pyrazole-4-carboxamide]
[1]
  IC50: 27 nM
[2]
  IC50: 186 nM

## N#C[C@H]1C[C@@H](O)CC[C@@H]1n1cc(C(N)=O)c(Nc2ccc([C@@H](O)C(F)(F)F)cc2)n1 (single isomer, unassigned) [Example 33-11, 1-[(1S,2S,4S or 1R,2R,4R)-2-cyano-4-hydroxycyclohexyl]-3-({4-[(1R or 1S)-2,2,2-trifluoro-1-hydroxyethyl]phenyl}amino)-1H-pyrazole-4-carboxamide]
[1]
  IC50: 0.45 nM
[2]
  IC50: 3 nM

## CC(C)(O)[C@H]1CC[C@H](n2cc(C(N)=O)c(Nc3ccc(Cl)cc3)n2)[C@@H](C#N)C1 (single isomer, unassigned) [Example 36-1, 3-(4-chlorophenylamino)-1-((1S,2S,4S or 1R,2R,4R)-2-cyano-4-(2-hydroxypropan-2-yl)cyclohexyl)-1H-pyrazole-4-carboxamide]
[1]
  IC50: 0.65 nM
[2]
  IC50: 4 nM

## CC(C)(O)C1CN([C@@H]2CC[C@H](n3cc(C(N)=O)c(Nc4ccc(C(F)(F)F)cc4)n3)[C@@H](C#N)C2)C1 (single isomer, unassigned) [Example 28-7, 1-{(1S,2S,4R or 1R,2R,4S)-2-cyano-4-[3-(1-hydroxy-1-methylethyl)azetidin-1-yl]cyclohexyl}-3-{[4-(trifluoro-methyl)phenyl]amino}-1H-pyrazole-4-carboxamide]
[1]
  IC50: 0.4 nM
[2]
  IC50: 49 nM

## N#C[C@H]1CCCC[C@@H]1n1cc(C(N)=O)c(Nc2ccc(CN)cc2)n1 (racemic) [Example 17-45, 3-{[4-(aminomethyl)phenyl]amino}-1-[(1S,2S and 1R,2R)-2-cyanocyclohexyl]-1H-pyrazole-4-carboxamide]
[1]
  IC50: 3 nM
[2]
  IC50: 10 nM

## CN[C@@H]1CC[C@H](n2cc(C(N)=O)c(Nc3ccc(Cl)cc3)n2)[C@@H](C#N)C1 (single isomer, unassigned) [Example 28-42, 3-[(4-chlorophenyl)amino]-1-[(1S,2S,4R or 1R,2R,4S)-2-cyano-4-(methylamino)cyclohexyl]-1H-pyrazole-4-carboxamide]
[1]
  IC50: 2 nM
[2]
  IC50: 36 nM

## N#C[C@H]1CCCC[C@@H]1n1cc(C(N)=O)c(Nc2ccc(C(F)F)nc2)n1 (single isomer, unassigned) [Example 17-59, 1-[(1S,2S or 1R,2R)-2-cyanocyclohexyl]-3-{[6-(difluoromethyl)pyridin-3-yl]amino}-1H-pyrazole-4-carboxamide]
[1]
  IC50: 2 nM
[2]
  IC50: 13 nM

## CN(C)[C@H]1CC[C@H](n2cc(C(N)=O)c(Nc3ccccc3)n2)[C@@H](C#N)C1 (single isomer, unassigned) [Example 28-135, 1-[(1S,2S,4S or 1R,2R,4R)-2-cyano-4-(dimethylamino)cyclohexyl]-3-(phenylamino)-1H-pyrazole-4-carboxamide]
[1]
  IC50: 0.65 nM
[2]
  IC50: 32 nM

## N#C[C@@H]1C[C@@H](NC2COC2)CC[C@H]1n1cc(C(N)=O)c(Nc2ccc(C(F)(F)F)cc2)n1 (single isomer, unassigned) [Example 30-17, 1-[(1R,2R,4S or 1S,2S,4R)-2-cyano-4-(oxetan-3-ylamino)cyclohexyl]-3-{[4-(trifluoromethyl)phenyl]amino}-1H-pyrazole-4-carboxamide]
[1]
  IC50: 0.85 nM
[2]
  IC50: 17 nM

## N#C[C@H]1C[C@H](O)CC[C@@H]1n1cc(C(N)=O)c(Nc2ccccc2)n1 (single isomer, unassigned) [Example 25-29, 1-[(1S,2S,4R or 1R,2R,4S)-2-cyano-4-hydroxycyclohexyl]-3-(phenylamino)-1H-pyrazole-4-carboxamide]
[1]
  IC50: 2 nM
[2]
  IC50: 26 nM

## COCCN[C@H]1CCC(n2cc(C(N)=O)c(Nc3ccc(Cl)cc3)n2)[C@@H](C#N)C1 (single isomer, unassigned) [Example 28-236, 3-[(4-chlorophenyl)amino]-1-{(1S,2S,4S or 1R,2R,4R)-2-cyano-4-[(2-methoxyethyl)amino]cyclo-hexyl}-1H-pyrazole-4-carboxamide]
[1]
  IC50: 0.9 nM
[2]
  IC50: 23 nM

## N#C[C@H]1CC[C@H](O)CC1n1cc(C(N)=O)c(Nc2ccccc2)n1 (mixture of isomers) [Example 2-12, 1-[(1R,2R,5R and 1S,2S,5S)-2-cyano-5-hydroxycyclohexyl]-3-(phenylamino)-1H-pyrazole-4-carboxamide]
[1]
  IC50: 15 nM
[2]
  IC50: 79 nM

## CCNC(=O)O[C@@H]1CCC(n2cc(C(N)=O)c(Nc3ccc(F)cc3)n2)[C@@H](C#N)C1 (mixture of isomers) [Example 34-7, (1R,3S,4S and 1S,3R,4R)-4-{4-carbamoyl-3-[(4-fluorophenyl)aminol-1H-pyrazol-1-yl}-3-cyanocyclohexyl ethylcarbamate]
[1]
  IC50: 0.85 nM
[2]
  IC50: 9 nM

## N#C[C@H]1CC(NCC2CCS(=O)(=O)C2)CC[C@@H]1n1cc(C(N)=O)c(Nc2ccc(S(=O)(=O)C(F)(F)F)cc2)n1 (single isomer, unassigned) [Example 28-152, 1-[(1S,2S or 1R,2R)-2-cyano-4-{[(1,1-dioxidotetrahydrothiophen-3-yl)methyl]amino}cyclohexyl]-3-({4-[(trifluoro-methyl)sulfonyl]phenyl}amino)-1H-pyrazole-4-carboxamide]
[1]
  IC50: 0.4 nM
[2]
  IC50: 10 nM

## CC1(C)CN([C@H]2CC[C@H](n3cc(C(N)=O)c(Nc4ccc(Cl)cc4)n3)[C@@H](C#N)C2)C1 (single isomer, unassigned) [Example 28-144, 3-[(4-chlorophenyl)amino]-1-[(1S,2S,4S or 1R,2R,4R)-2-cyano-4-(3,3-dimethylazetidin-1-yl)cyclohexyl]-1H-pyrazole-4-carboxamide]
[2]
  IC50: 21 nM

## N#C[C@H]1C[C@@H](N2CCC2)CC[C@@H]1n1cc(C(N)=O)c(Nc2ccc(C=O)cc2)n1 (single isomer, unassigned) [Example 28-66, 1-[(1S,2S,4S or 1R,2R,4R)-4-azetidin-1-yl-2-cyanocyclohexyl]-3-[(4-formylphenyl)amino]-1H-pyrazole-4-carboxamide]
[2]
  IC50: 16 nM

## N#C[C@H]1CCCCC1n1cc(C(N)=O)c(Nc2ccc(S(=O)(=O)C(F)F)cc2)n1 (mixture of isomers) [Example 17-9, 1-[(1S,2S and 1R,2R)-2-cyanocyclohexyl]-3-({4-[(difluoromethyl)sulfonyl]phenyl}amino)-1H-pyrazole-4-carboxamide]
[2]
  IC50: 5 nM

## CC1(N[C@H]2CCC(n3cc(C(N)=O)c(Nc4ccc(Cl)cc4)n3)[C@@H](C#N)C2)CCOCC1 (single isomer, unassigned) [Example 28-235, 3-[(4-chlorophenyl)amino]-1-{(1S,2S,4S or 1R,2R,4R)-2-cyano-4-[(4-methyltetrahydro-2H-pyran-4-yl)amino]cyclohexyl}-1H-pyrazole-4-carboxamide]
[2]
  IC50: 25 nM

## CS(=O)(=O)c1ccc(Nc2nn(C3CCCC[C@H]3C#N)cc2C(N)=O)cc1 (mixture of isomers) [Example 2-14, 1-[(1S,2R and 1R,2S)-2-cyanocyclohexyl]-3-{[4-(methylsulfonyl)phenyl]amino}-1H-pyrazole-4-carboxamide]
[2]
  IC50: 18 nM

## N#C[C@H]1C[C@@H](NCC(F)(F)F)CC[C@@H]1n1cc(C(N)=O)c(Nc2ccc(S(=O)(=O)C(F)(F)F)cc2)n1 (single isomer, unassigned) [Example 28-107, 1-{(1S,2S,4S or 1R,2R,4R)-2-cyano-4-[(2,2,2-trifluoroethyl)amino]cyclohexyl}-3-({4-[(trifluoro-methyl)sulfonyl]phenyl}amino)-1H-pyrazole-4-carboxamide]
[2]
  IC50: 31 nM

## N#C[C@H]1C[C@@H](C(=O)NC2CCC2)CC[C@@H]1n1cc(C(N)=O)c(Nc2ccc(Cl)cc2)n1 (single isomer, unassigned) [Example 35-12, 3-[(4-chlorophenyl)amino]-1-[(1S,2S,4S or 1R,2R,4R)-2-cyano-4-(cyclobutylcarbamoyl)cyclohexyl]-1H-pyrazole-4-carboxamide]
[2]
  IC50: 103 nM

## N#C[C@H]1C[C@H](O)CC[C@@H]1n1cc(C(N)=O)c(Nc2ccc(C3CC3)cc2)n1 (single isomer, unassigned) [Example 25-14, 1-[(1S,2S,4R or 1R,2R,4S)-2-cyano-4-hydroxycyclohexyl]-3-[(4-cyclopropylphenyl)amino]-1H-pyrazole-4-carboxamide]
[2]
  IC50: 25 nM

## CC1(C)CN([C@@H]2CC[C@H](n3cc(C(N)=O)c(Nc4ccc([C@@H](O)C(F)(F)F)cc4)n3)[C@@H](C#N)C2)C1 (single isomer, unassigned) [Example 28-81, 1-[(1S,2S,4R or 1R,2R,4S)-2-cyano-4-(3,3-dimethylazetidin-1-yl)cyclohexyl]-3-({4-[(1R or 1S)-2,2,2-trifluoro-1-hydroxyethyl]phenyl}amino)-1H-pyrazole-4-carboxamide]
[2]
  IC50: 24 nM

## CN(C)[C@@H]1CC[C@@H](n2cc(C(N)=O)c(Nc3ccc(C(F)(F)F)nc3)n2)[C@H](C#N)C1 (single isomer, unassigned) [Example 28-18, 1-[(1R,2R,4R or 1S,2S,4S)-2-cyano-4-(dimethylamino)cyclohexyl]-3-{[6-(trifluoromethyl)pyridin-3-yl]amino}-1H-pyrazole-4-carboxamide]
[2]
  IC50: 400 nM

## CN[C@@H]1CC[C@H](n2cc(C(N)=O)c(Nc3ccc(Cl)c(F)c3)n2)[C@@H](C#N)C1 (single isomer, unassigned) [Example 28-39, 3-[(4-chloro-3-fluorophenyl)amino]-1-[(1S,2S,4R or 1R,2R,4S)-2-cyano-4-(methylamino)cyclohexyl]-1H-pyrazole-4-carboxamide]
[2]
  IC50: 35 nM

## CC(C)(C)OC(=O)N[C@@H]1CC[C@H](C#N)C(n2cc(C(N)=O)c(Nc3ccc(F)cc3)n2)C1 (single isomer, unassigned) [Example 44-2, tert-Butyl[(1R,3S,4S or 1S,3R,4R)-3-{4-carbamoyl-3-[(4-fluorophenyl)amino]-1H-pyrazol-1-yl}-4-cyanocyclohexyl]carbamate]
[2]
  IC50: 990 nM

— patent US8962608B2, “Cycloalkylnitrile pyrazole carboxamides as janus kinase inhibitors” (Merck Sharp & Dohme Corp., priority 2011, dated 2015)
